Experimental data as given in patent US11945832B2, “Psilocybin and O-acetylpsilocin, salts and solid state forms thereof” (Terran Biosciences Inc., priority 2021, dated 2024).
In brackets after ≈: the same amount, converted by molar mass. Entries after “also recorded” stand apart in the source; their conditions may differ.

Columns and labels:
[1] = Estimated solubilities of psilocybin (solvent aliquot addition, visual inspection); format: physicochemical; details: room temperature
Source text: Solubilities of psilocybin in a few solvents were estimated.

[2] = Dynamic vapor sorption (DVS) analysis, hygroscopicity; format: physicochemical; details: for solid form of post-DVS specimen (XRPD): after DVS 5-95-5% RH; for overall water uptake (DVS): 5-95% RH
Description: (§1) DVS analysis was carried out using a TA Instruments Q5000 Dynamic Vapor Sorption analyzer. The instrument was calibrated with standard weights and a sodium bromide standard for humidity. Approximately 10-25 mg of sample was loaded into a metal-coated quartz pan for analysis. The sample was analyzed at 25° C. with a maximum equilibration time of one hour in 10% relative humidity (RH) steps from 5 to 95% RH (adsorption cycle) and from 95 to 5% RH (desorption cycle). The movement from one step to the next occurred either after satisfying the equilibrium criterion of 0.01% weight change or, if the equilibrium criterion was not met, after one hour. The percent weight change values were calculated using Microsoft Excel®.
as §1, with “Dynamic Vapor Sorption (DVS)” for “DVS”, “is” for “was”, “is” for “were”, “Excel.” for “Excel®.”

[3] = Hygroscopicity test in relative humidity (RH) jars; format: physicochemical
Description: Solids deliquesced within approx. 1 hour of exposure to elevated relative humidity. The sample was capped and placed in a freezer for storage.

[4] = system: Psilocybin Induced Head Twitches in Mice; test: Psilocybin-induced head-twitch response in mice, 5-HT2A antagonist given i.v. after psilocybin; format: in vivo, C57BL/6J mice; details: for Result (suppression of psilocybin-induced head twitch): 5HT2A antagonist i.v. at T=7 min, summary of Examples 13-21; for effect on psilocybin-induced head twitch (summary of Examples 13-21): administered after psilocybin, compared to vehicle-treated mice, dose not given; for suppression of psilocybin-induced head-twitch response: monitored until 40 min
Source text: The head-shake response is elicited by a wide variety of known hallucinogens such as LSD, psilocybin, psilocin, N,N-dimethyltryptamine (DMT), and mescaline as well as serotonin-releasing agents and direct 5-HT2 agonists. […] Later studies have confirmed 5-HT2A receptors are the primary, direct mediators of the response and that the headshake response in rats is essentially the same as head-twitches in mice, at least in regards to similarity in appearance and 5-HT2A receptor dependence.
Male C57BL/6J mice (approximately 25 g) were group housed. Animals were maintained under a 12 h light/dark cycle, at 23° C. with humidity controlled.
Psilocybin was formulated in saline at a concentration of 0.4 mg/mL to give a dose of 2 mg/kg when administered i.p. in a 5 mL/kg dosing volume.
(§2) At T=−60 min, C57BL/6J mice were individually housed into transparent observation cages with bedding removed and left to habituate. At T=−3 min, mice were placed into heated cages at 40° C. At T=0 h, groups of 3 mice were dosed intraperitoneally with psilocybin (2 mg/kg). Following dosing, mice were replaced into the heated cages and head-twitch responses continuously scored for 7 min. After 7 min, mice were intravenously dosed via the lateral tail vein with either vehicle 1 (saline) or volinanserin 1 mg/kg in 5 mL/kg dosing volumes. Mice were replaced into the observation cages and head twitch behavior were monitored until 40 min after agonist dosing. Cumulative head-twitches were measured every 2 minutes until 40 minutes after agonist dosing.
as §2, with “min. […]” for “min. After 7 min, mice were intravenously dosed via the lateral tail vein with either vehicle 1 (saline) or volinanserin 1 mg/kg in 5 mL/kg dosing volumes.”, “behavior was” for “behavior were”, “Cumulative head-twitch behavior was” for “Cumulative head-twitches were”
as §2, with “min. […]” for “min. After 7 min, mice were intravenously dosed via the lateral tail vein with either vehicle 1 (saline) or volinanserin 1 mg/kg in 5 mL/kg dosing volumes.”, “behavior was” for “behavior were”, “Cumulative head-twitch behavior was” for “Cumulative head-twitches were”
as §2, with “min. […]” for “min. After 7 min, mice were intravenously dosed via the lateral tail vein with either vehicle 1 (saline) or volinanserin 1 mg/kg in 5 mL/kg dosing volumes.”, “behavior was” for “behavior were”, “Cumulative head-twitch behavior was” for “Cumulative head-twitches were”
as §2, with “min. […]” for “min. After 7 min, mice were intravenously dosed via the lateral tail vein with either vehicle 1 (saline) or volinanserin 1 mg/kg in 5 mL/kg dosing volumes.”, “behavior was” for “behavior were”, “Cumulative head-twitch behavior was” for “Cumulative head-twitches were”

[5] = Estimated aqueous solubility of O-acetyl psilocin salts (aliquot addition method); details: bounds printed as 'Small particles present at ≤ x mg/mL'
Description: Whether dissolution had occurred was judged by visual inspection after addition of each solvent aliquot. […] Solubility numbers were calculated by dividing the weight of the sample by the total amount of solvent used to dissolve the sample. […] The solubility number is expressed as “greater than or equal to” if dissolution occurred on addition of the first solvent aliquot.

[6] = C57BL/6J mice, psilocybin 2 mg/kg i.p. at T=0, head twitches scored to 40 min
[7] = antagonist 1 mg/kg i.v. 7 min after psilocybin 2 mg/kg i.p.
[8] = antagonist 4 mg/kg i.v. 7 min after psilocybin 2 mg/kg i.p.

CN(C)CCc1c[nH]c2cccc(OP(=O)(O)O)c12 [psilocybin]
solubility ([1]; organic solvent or mixture, thermodynamic from solid, 1,4-dioxane): < 1000 µg/mL
solubility ([1]; organic solvent or mixture, thermodynamic from solid, 2-propanol (2-PrOH)): < 1000 µg/mL
solubility ([1]; organic solvent or mixture, thermodynamic from solid, Acetone): < 1000 µg/mL
solubility ([1]; organic solvent or mixture, thermodynamic from solid, Acetonitrile (ACN)): < 1000 µg/mL
solubility ([1]; organic solvent or mixture, thermodynamic from solid, Dichloromethane (DCM)): < 1000 µg/mL
solubility ([1]; organic solvent or mixture, thermodynamic from solid, Ethanol (EtOH)): < 1000 µg/mL
solubility ([1]; organic solvent or mixture, thermodynamic from solid, Ethyl acetate (EtOAc)): < 1000 µg/mL
solubility ([1]; organic solvent or mixture, thermodynamic from solid, Methanol (MeOH)): 11000 µg/mL (≈ 38.7 mM)
solubility ([1]; organic solvent or mixture, thermodynamic from solid, Tetrahydrofuran (THF)): < 1000 µg/mL
solubility ([1]; thermodynamic from solid, Water): 4000 µg/mL (≈ 14.1 mM)
solid form of post-DVS specimen (XRPD) [2]: converted to a hydrate Form B; also recorded: Crystalline Form B (hydrate)

CC(=O)Oc1cccc2[nH]cc(CCN(C)C)c12.O=C(O)C(O)C(O)C(=O)O [L-tartrate salt, Form A, O-Acetyl Psilocin Tartrate]
hygroscopicity (DVS), in words ([2]; 5-85% RH): non-hygroscopic
hydrate formation on DVS ([2]; above 85% RH): consistent with hydrate formation
water uptake (DVS) ([2]; above 85% RH): approx. 6%
hydrate formation on DVS ([2]; above 85% RH, listed as Tartrate A): possible hydrate formation
solid form of post-DVS specimen (XRPD) [2]: consistent with Form A by XRPD analysis and exhibited additional diffraction peaks

CC(=O)Oc1cccc2[nH]cc(CCN(C)C)c12.O=C(O)/C=C/C(=O)O [O-acetylpsilocin-fumarate Form A, O-acetylpsilocin-fumarate]
overall water uptake (DVS) [2]: approx. 0.1%
hygroscopicity (DVS), in words ([2]; whole RH range (5-95% RH)): non-hygroscopic

CC(=O)Oc1cccc2[nH]cc(CCN(C)C)c12.O=P(O)(O)O [phosphate salt (Forms A+B), O-acetyl psilocin phosphate]
hygroscopicity by RH jars, in words ([3]; RH jars): low

N#Cc1c[nH]c2c(C(=O)N3CCN(CCc4ccc(F)cc4)CC3)cccc12 [pruvanserin]
Result (suppression of psilocybin-induced head twitch) [4, 6]: Full suppression of head twitch
effect on psilocybin-induced head twitch (summary of Examples 13-21) [4]: full ending
suppression of psilocybin-induced head-twitch response [4, 7]: completely suppressed

CC(=O)Oc1cccc2[nH]cc(CCN(C)C)c12.O=C(O)/C=C\C(=O)O [maleate salt, Form A, O-acetyl psilocin maleate]
overall water uptake (DVS) [2]: approx. 0.8%
solid form of post-DVS specimen (XRPD) [2]: consistent with Form A
hygroscopicity (DVS), in words ([2]; whole RH range (5-95% RH)): non-hygroscopic
hygroscopicity (DVS), in words ([2]; whole RH range (5-95% RH), listed as maleate salt): minimal water sorption

COc1cccc([C@H](O)C2CCN(CCc3ccc(F)cc3)CC2)c1OC [volinanserin]
Result (suppression of psilocybin-induced head twitch) [4, 6]: Full suppression of head twitch
effect on psilocybin-induced head twitch (summary of Examples 13-21) [4]: full ending
suppression of psilocybin-induced head-twitch response [4, 7]: completely suppressed

CC(=O)Oc1cccc2[nH]cc(CCN(C)C)c12.O=C(O)C(O)C(O)C(=O)O [L-tartrate, Form A]
hygroscopicity ([2]; 5-85% RH, DVS): non-hygroscopic
hydrate formation (DVS) ([2]; DVS, at high RH): resulting in hydrate
Water uptake ([2]; above 85% RH, DVS): ~6%
hygroscopicity ([2]; above 85% RH, DVS): hygroscopic

CC(=O)Oc1cccc2[nH]cc(CCN(C)C)c12.Cl [O-acetyl psilocin hydrochloride]
time to deliquescence ([3]; open vial in 75% RH jar): ≤ 1 h

CC(=O)Oc1cccc2[nH]cc(CCN(C)C)c12.O=C(O)C[C@H](O)C(=O)O [L-malate salt, Form B, O-Acetyl Psilocin Malate]
hygroscopicity (DVS), in words ([2]; 5-85% RH): non-hygroscopic
hydrate formation on DVS ([2]; above 85% RH): no hydrate formation occurred
hydrate formation on DVS ([2]; above 85% RH, listed as Malate B): possible hydrate formation
water uptake (DVS) ([2]; above 85% RH, unit not given): approx. 4.500
solid form of post-DVS specimen (XRPD) [2]: consistent with Form B

O=c1[nH]c2ccccc2n1CCN1CCN(c2cccc(C(F)(F)F)c2)CC1 [flibanserin]
Result (suppression of psilocybin-induced head twitch) [4, 6]: Partial suppression of head twitch
effect on psilocybin-induced head twitch (summary of Examples 13-21) [4]: partial suppression
suppression of psilocybin-induced head-twitch response [4, 7]: partially suppressed
suppression of psilocybin-induced head-twitch response [4, 8]: partially suppressed

CC(=O)Oc1cccc2[nH]cc(CCN(C)C)c12.CS(=O)(=O)O [mesylate salt, Form A, O-Acetyl Psilocin Mesylate]
hygroscopicity (DVS), in words ([2]; 5-55% RH): non-hygroscopic
water uptake (DVS) ([2]; above 55% RH): 40%
solid form of post-DVS specimen (XRPD) [2]: liquid

O=C(c1ccc(F)cc1)C1CCN(CCn2c(=O)[nH]c3ccccc3c2=O)CC1 [ketanserin]
suppression of psilocybin-induced head-twitch response ([4]; antagonist 2 mg/kg i.v. 7 min after psilocybin 2 mg/kg i.p.): completely suppressed

Maleate
Water solubility [5]: >50000 µg/mL

COc1ccc(NC(=O)Nc2ccc(F)cc2F)cc1-c1c(Br)cnn1C [nelotanserin]
Result (suppression of psilocybin-induced head twitch) [4, 6]: Partial suppression of head twitch,
Result (suppression of psilocybin-induced head twitch) at high dose ([4]; C57BL/6J mice, psilocybin 2 mg/kg i.p. at T=0, antagonist at high dose (nelotanserin 4 mg/kg i.v.) at T=7 min, head twitches scored to 40 min): full suppression at high dose
effect on psilocybin-induced head twitch (summary of Examples 13-21) [4]: partial suppression
suppression of psilocybin-induced head-twitch response [4, 7]: partially suppressed
suppression of psilocybin-induced head-twitch response [4, 8]: completely suppressed; also recorded: completed suppressed

Cc1nc2sccn2c(=O)c1CCN1CCC(=C(c2ccc(F)cc2)c2ccc(F)cc2)CC1 [ritanserin]
Result (suppression of psilocybin-induced head twitch) [4, 6]: Full suppression of head twitch
effect on psilocybin-induced head twitch (summary of Examples 13-21) [4]: full ending
suppression of psilocybin-induced head-twitch response [4, 7]: completely suppressed
